Assay results as given in patent publication US20220265847A1, “METHODS AND COMPOSITIONS FOR TREATING NON-SMALL CELL LUNG CANCER” (Board of Regents, The University of Texas System, priority 2019, published 2022).

Legend:
Type in all cases: cell-based
[1] = system: HCC827 (EGFR mutant) cells; test: Sensitivity of HCC827 parental cells to EGFR TKIs compared to EGFR TKI resistant (ER) variants; conditions: FIG. 1
[2] = system: HCC4006 (EGFR mutant) cells; test: Sensitivity of HCC4006 parental cells to EGFR TKIs compared to EGFR TKI resistant (ER) variants; conditions: FIG. 1
Text: While EGFR mutant NSCLC patients are initially responsive to EGFR tyrosine kinase inhibitors (TKI), resistant disease inevitably emerges. The inventors derived a panel of NSCLC cell lines with acquired resistance to EGFR TKIs. […] CD70 is typically expressed on T-cells and B-cells, but can also be expressed by some malignant cells. Expression of CD70 by tumor cells is thought to contribute to an immunosuppressive environment by affecting/attracting regulatory T cells and promoting T cell apoptosis and exhaustion.
While EGFR mutant NSCLC patients are initially responsive to EGFR tyrosine kinase inhibitors (TKI), resistant disease inevitably emerges. The inventors derived a panel of NSCLC cell lines with acquired resistance to EGFR TKIs. […] Once tumors were visualized by CT imaging, doxycycline was withdrawn from a subset of animals to mimic EGFR inhibition. […] Tumors were collected an CD70 expression was analyzed by immunohistochemistry. […] Next, the inventors evaluated CD70 expression in EGFR mutant EGFRTKI naïve NSCLC clinical specimens and EGFR mutant NSCLC specimens collected after EGFR TKI resistance.

[3] = system: HCC827 cells with induced expression of ZEB1; test: EGFR TKI sensitivity of HCC827 cells after induced ZEB1 expression (EMT induction); conditions: HCC827 (EGFR TKI sensitive) cells with induced ZEB1 expression; FIG. 4B-D / 10B
Text: Next, the inventors investigated the impact of EMT on CD70 expression in EGFR mutant NSCLC cell lines. The inventors induced EMT through forced expression of ZEB1 in HCC827 parental (EGFR TKI sensitive) cells. […] The inventors next evaluated whether CD70 expression was associated with a mesenchymal phenotype in NSCLC cell lines and human lung adenocarcinomas using the TCGA database.

H1975 OR16 = test: CD70 ADC relative cell viability; conditions: H1975 OR16 vs H1975 parental (CD70 low); increasing concentrations; FIG. 14 and 16
Text: (§1) FIG. 14A-C. CD70 antibody-drug conjugates (ADCs) target CD70+ EGFR TKI resistant cell in vitro.
(§2) To determine whether CD70 antibody drug conjugates (ADCs) are a valid approach for targeting EGFR TKI resistant cells, the inventors treated H1975 cells (CD70 low and EGFR TKI sensitive) and H1975 OR5 and H1975 OR16 (both EGFR TKI resistant and CD70 high) with increasing concentrations of the CD70 ADCs cuzatuzumab-MMAE or vorsetuzumab-MMAE. […] The inventors further observed an additive anti-tumor cell effect when osimertinib was combined with anti-CD70 ADCs. (FIG. 15).

H1975 OR5 = test: CD70 ADC relative cell viability
Text: as §1, §2

[4] = system: HCC4006 osimertinib-resistant (OR) cells; test: Soluble CD27 stimulation of CD70, downstream signalling by Western blotting; conditions: FIG. 12
Description: FIG. 12. Stimulation of CD70 activates signal transduction pathways in EGFR TKI resistant cells. HCC4006 osimertinib-resistant (OR) cells were treated with soluble CD27, the binding partner of CD70, and the effect on downstream signal transduction pathways was evaluated by Western blotting.
Binding of CD27 to CD70 induces activation of signal transduction pathways downstream of CD70. To investigate the potential impact of CD70 signaling on EGFR TKI resistant cells, the inventors stimulated EGR TKI resistant cells with recombinant soluble CD27.

With `C#Cc1cccc(Nc2ncnc3cc(OCCOC)c(OCCOC)cc23)c1` [erlotinib] the “sensitivity to EGFR TKI” value [1] was “sensitive”, the “sensitivity to EGFR TKI” value [2] was “sensitive” and the “sensitivity to EGFR TKI after ZEB1 expression” value [3] was “resistant”.

With `C=CC(=O)Nc1cc(Nc2nccc(-c3cn(C)c4ccccc34)n2)c(OC)cc1N(C)CCN(C)C` [osimertinib] the “sensitivity to EGFR TKI” value [1] was “sensitive”, the “sensitivity to EGFR TKI” value [2] was “sensitive” and the “sensitivity to EGFR TKI after ZEB1 expression” value [3] was “resistant”.

B1: vorsetuzumab-MMAE (conjugate, chains of the INN, looked up)
VH: QVQLVQSGAEVKKPGASVKVSCKASGYTFTNYGMNWVRQAPGQGLKWMGWINTYTGEPTYADAFKGRVTMTRDTSISTAYMELSRLRSDDTAVYYCARDYGDYGMDYWGQGTTVTVSS
VL: DIVMTQSPDSLAVSLGERATINCRASKSVSTSGYSFMHWYQQKPGQPPKLLIYLASNLESGVPDRFSGSGSGTDFTLTISSLQAEDVAVYYCQHSREVPWTFGQGTKVEIK
modifications: MMAE payload
For B1, the “sensitivity to CD70 ADC versus H1975 parental cells” value (H1975 OR16) was “more sensitive”, the “anti-tumor cell activity (relative cell viability)” value (H1975 OR5; H1975 OR5, CD70 high, EGFR TKI resistant, FIG. 14) was “anti-tumor cell activity” and the “sensitivity to CD70 ADC versus H1975 parental cells” value (H1975 OR5; H1975 OR5 vs H1975 parental (CD70 low), increasing concentrations, FIG. 14 and 16) was “more sensitive”.

B2: soluble CD27: recombinant soluble CD27, the binding partner of CD70 (protein, UniProt P26842 20-191, looked up)
extracellular domain: ATPAPKSCPERHYWAQGKLCCQMCEPGTFLVKDCDQHRKAAQCDPCIPGVSFSPDHHTRPHCESCRHCNSGLLVRNCTITANAECACRNGWQCRDKECTECDPLPNPSLTARSSQALSPHPQPTHLPYVSEMLEARTAGHMQTLADFRQLPARTLSTHWPPQRSLCSSDFIR
modifications: extracellular domain
For B2, the “effect on downstream signal transduction pathways” value [4] was “phosphorylation of Akt and ERK”.
